Experimental data from US20240358862A1, “Synthesis Method and Application of a Near-infrared Probe GGa-ICG specific binding to PSCA” (Guangzhou Shiyun Biotechnology Co., Ltd, priority 2022, published 2024).

Key:
[1] = Fluorescence stability detection; format: physicochemical; settings: after excitation at 780 nm
Method: Stability testing was divided into two groups: 1) stability testing under excitation wavelength and 2) stability testing of GGa-ICG under visible light. Excitation wavelength of 780 nm (GGa-ICG, ssDNA-ICG, and ICG) and visible light were used to excite the fluorescence probe GGa-ICG. Fluorescence detection was performed, and the changes in fluorescence intensity were recorded using a fluorescence spectrophotometer.

[2] = tested on: prostate cancer lesions (PC-3 xenograft); assay: In vivo imaging in PC-3 mouse xenograft model; design: species or system BALB/c nude mice; settings: intravenous injection, at 2, 4, and 8 hours
Method: Male BALB/c nude mice (BALB/c-nude) were purchased from Beijing SLAC Laboratory Animal Co., Ltd. Five-week-old nude mice were subcutaneously injected with 5×10^6 PC-3 cells on the back. The tumor was allowed to grow for 15 to 20 days until it reached a diameter of 0.5-1.5 cm. The BALB/c nude mice bearing tumors were anesthetized with sedatives and anesthetics. Once the mice were immobilized, a designated dose (0.1 mg, 0.5 mg, 1 mg, 2 mg per injection) of GGa-ICG or ssDNA-ICG was injected through the tail vein. At certain time points, fluorescent images of live mice were collected using the IVIS Lumina II in vivo imaging system. For ex vivo fluorescent experiments, tumor-bearing mice that were intravenously injected with GGa-ICG or ssDNA-ICG were euthanized by cervical dislocation 1 hour after injection under anesthesia. After dissection, organs including brain, liver, kidney, spleen, lung, heart, and tumor tissue were imaged using the IVIS Lumina II in vivo imaging system as described above.

CC1(C)C(/C=C/C=C/C=C/C=C2\N(CCCCS(=O)(=O)O)c3ccc4ccccc4c3C2(C)C)=[N+](CCCCS(=O)(=O)[O-])c2ccc3ccccc3c21 [ICG, indocyanine green, reference compound]
time after which fluorescence was extinguished [1]: 1 h | binding to prostate cancer lesions in vivo [2]: specifically bound
